These results are taken from PubChem BioAssay AID1645848.

For the data set the following is noted: buffer; pH 7.4; 6.0 h; 150.0 µM.

Converted amounts (≈) assume the structure as drawn.

As a reminder, the solubility (kinetic) is solubility judged after dilution from a stock solution rather than from solid. Take `COc1cc2c(c(OC)c1OC)-c1ccc(SC)c(=O)cc1C(N)CC2` (stereo not drawn): the kinetic solubility is more than 55 µg/mL.

Turning to `O=C(c1ccco1)N1CCN(c2nc(-c3ccc(Br)cc3)cs2)CC1`, the solubility (kinetic) amounted to 2.3 µg/mL (≈ 5.5 µM).

In turn, `COc1ncc(-c2ccc3c(Nc4cc(Oc5cc(F)cc(F)c5)cc(C(=O)O)c4)c(S(=O)(=O)NC4CC4)cnc3c2)c(OC)n1` returned a kinetic solubility of 21.5 µg/mL (≈ 33.1 µM).

The compound `CCCNc1oc(-c2cccc3ccccc23)nc1C#N` gave a solubility (kinetic) of less than 1 µg/mL.

Compound `O=C1Nc2c(Cl)cccc2/C1=C\c1cc(Cl)c(O)c(Cl)c1` yielded a kinetic solubility of 7.3 µg/mL (≈ 21.4 µM).

Take `FC(F)(F)c1ccccc1-c1nc(NCc2ccc(-c3cccnc3)cc2)c2ccccc2n1`: the solubility (kinetic) was less than 1 µg/mL.

`CC(C)(C)c1ccc(-n2cnc3cc(C(=O)N4CCCCC4)ccc32)cc1` registered a kinetic solubility of less than 1 µg/mL.

Compound `CS(=O)(=O)c1ccccc1-c1csc(N2CCC(C(N)=O)CC2)n1` had a solubility (kinetic) of more than 54 µg/mL.

With `O=S(=O)(Nc1ccc(C2CCNCC2)cc1)c1ccc(NCc2cccc(Cl)c2O)cc1`, the solubility (kinetic) is 47.2 µg/mL (≈ 100 µM).

On to `COc1ccc(C2=Nc3ccc(Br)cc3C(c3ccccc3)N2CC(=O)NN)cc1` (stereo not drawn), for which the solubility (kinetic) was more than 69 µg/mL.

`CCOC(=O)c1[nH]c(C)c(CCC(=O)N2CCN(c3cccc(C)c3C)CC2)c1C` yielded a kinetic solubility of less than 1 µg/mL.

For the compound `O=C(O)c1cccc(-c2noc(-c3ccccc3F)n2)c1`, the kinetic solubility was 7.02 µg/mL (≈ 24.7 µM).

For the compound `CN(Cc1cccs1)c1ncnc2ccc(-c3ccc4c(c3)OCO4)cc12`, the solubility (kinetic) is less than 1 µg/mL.

`COc1ccccc1NC(=O)c1oc2ccccc2c1NC(=O)Cc1cccs1`: the solubility (kinetic) was less than 1 µg/mL.

As to `O=C1CCCC2=C1C(c1[nH]ncc1Cl)N=C(Nc1nc3c(Br)cccc3o1)N2` (stereo not drawn), the solubility (kinetic) was less than 1 µg/mL.

Consider `CC(/C=C/C(=O)NO)=C\[C@@H](C)C(=O)c1ccc(N(C)C)cc1`, for which the kinetic solubility is more than 45 µg/mL.

`CC(C)Oc1cccc(-c2cnc(N3CCC(C(N)=O)CC3)s2)c1` yielded a kinetic solubility of 1.43 µg/mL (≈ 4.15 µM).

As to `CCc1ccc(C(=O)Nc2cc(CN3CCN(C)CC3)cc(C(F)(F)F)c2)cc1C#Cc1cnc2ccnn2c1`, the solubility (kinetic) was less than 1 µg/mL.

For `CCOc1cc(=O)n2c(c1C(=O)Nc1cc(OC)c(Cl)cc1OC)CCCC2`, the solubility (kinetic) was more than 60 µg/mL.

Turning to `CCOc1ccc(CCNC(=O)c2ccc(Oc3ccccc3)cc2)cc1OCC`, the kinetic solubility was less than 1 µg/mL.

For `Cc1cnc(SCc2ccccn2)nc1C1CCCN(C(=O)c2scc3c2CCCC3)C1` (stereo not drawn), the solubility (kinetic) is 4.03 µg/mL (≈ 8.68 µM).

In turn, `COC(=O)c1ccc(NC(=O)c2nc3ccccc3n(C)c2=O)cc1` showed a solubility (kinetic) of less than 1 µg/mL.

Consider `Cc1ccc(-c2cc(C(=O)Nc3ccc(S(N)(=O)=O)cc3)c3ccccc3n2)cc1C`, for which the kinetic solubility is less than 1 µg/mL.

Compound `COc1ccc(Nc2cnc3ccc(-c4ccc(OC)c(OC)c4)nn23)cc1` showed a kinetic solubility of less than 1 µg/mL.

`COc1ccc2c3c([nH]c2c1)C1CC2C(CC(O)C(OC)C2CO)CN1CC3` (stereo not drawn) returned a kinetic solubility of more than 57 µg/mL.

Turning to `Cc1ccc(-c2nc(NCC(=O)Nc3cccc(C(=O)O)c3)c3ccccc3n2)cc1`, the kinetic solubility was more than 61 µg/mL.

With `Cc1ccccc1C(=O)N1CCc2cc(N3CCC(NC(=O)Cc4ccccc4)C3)ccc21` (stereo not drawn), the kinetic solubility was 5.59 µg/mL (≈ 12.7 µM).

For `Cc1nc2nc(NC(=O)c3ccc(C(C)(C)C)cc3)[nH]n2c(=O)c1Cl`, the solubility (kinetic) was determined as 14.7 µg/mL (≈ 40.8 µM).

On to `NC(=O)C1CCN(c2nc(-c3ccc4c(c3)OCO4)cs2)CC1`, for which the kinetic solubility is more than 49 µg/mL.

The compound `CCCCOc1ccc(CNC(=O)c2cc3n(n2)CCCN(Cc2ccc(C)cc2)C3=O)cc1` had a solubility (kinetic) of less than 1 µg/mL.

The compound `CC1(C)CNc2cc(NC(=O)c3cccnc3NCc3ccncc3)ccc21` gave a kinetic solubility of 41.8 µg/mL (≈ 112 µM).

As to `COc1cc2c(cc1NC(=O)COc1ccc(Cl)cc1)oc1ccccc12`, the solubility (kinetic) was less than 1 µg/mL.

As for `CC(=O)Nc1ccc(C(=O)Nc2ccccc2N)cc1`, the kinetic solubility was more than 40 µg/mL.

As to `CC1=C(C(=O)Nc2nc3ccccc3s2)C(c2[nH]ncc2Cl)N=C(Nc2nc3ccccc3o2)N1` (stereo not drawn), the kinetic solubility was less than 1 µg/mL.

Compound `Cc1ccccc1C(=O)N1CCc2cc(-c3nc(NC(=O)Cc4ccc5c(c4)OCCO5)sc3C)ccc21` displayed a solubility (kinetic) of less than 1 µg/mL.

`Nc1nc(Nc2ccc(S(N)(=O)=O)cc2)nn1C(=O)c1c(F)cccc1F`: the solubility (kinetic) is 45.6 µg/mL (≈ 116 µM).

The compound `Cc1ccc(S(=O)(=O)Nc2cnccc2C(=O)Nc2cccc3ccccc23)cc1` returned a solubility (kinetic) of 46.4 µg/mL (≈ 111 µM).

`C#Cc1ccc(NC(=O)c2cnn3c(C)cc(C)nc23)cc1` had a kinetic solubility of less than 1 µg/mL.

The compound `CCOc1ccc(CCNC(=O)c2cc3ccccc3n2Cc2cccc(C)c2)cc1OCC` registered a solubility (kinetic) of less than 1 µg/mL.

`CCCCC1CCC(C(=O)Nc2ccc(S(=O)(=O)Nc3nccs3)cc2)CC1` (stereo not drawn) yielded a kinetic solubility of less than 1 µg/mL.

For the compound `Cc1ccccc1S(=O)(=O)N1CCCC(CCC(=O)NCCN(C)C2CCCCC2)C1` (stereo not drawn), the solubility (kinetic) is 11.7 µg/mL (≈ 26 µM).

Compound `O=C(Nc1nc(-c2ccccc2)cs1)c1ccncc1NS(=O)(=O)c1ccccc1` displayed a solubility (kinetic) of 21.2 µg/mL (≈ 48.5 µM).

`CC(=O)N1CCN(c2nc(-c3ccc(Br)cc3)cs2)CC1` registered a solubility (kinetic) of less than 1 µg/mL.

Turning to `O=C(/C=C/c1cccnc1)NCCCCC1CCN(C(=O)c2ccccc2)CC1`, the solubility (kinetic) is more than 58 µg/mL.

As to `COc1cccc(CNc2ccc(S(=O)(=O)Nc3ncccn3)cc2)c1O`, the solubility (kinetic) was more than 57 µg/mL.

As to `OCC(O)CCO/N=C1/C(c2c(O)[nH]c3ccccc23)=Nc2ccccc21` (stereo not drawn), the kinetic solubility was less than 1 µg/mL.

As for `c1ccc(Nc2cc3c(cn2)CN(Cc2ccsc2)CCN3)cc1`, the solubility (kinetic) is more than 75 µg/mL.

The compound `C[C@H]1CN(C(=O)c2nn(C)c3ccccc23)C[C@@H]1c1nc(-c2ccncc2)no1` gave a solubility (kinetic) of 34.9 µg/mL (≈ 89.8 µM).

Compound `Cc1cc(C)nc(NC(=S)N2CCN(c3ccc(F)cc3F)CC2)c1` showed a solubility (kinetic) of 24.8 µg/mL (≈ 68.4 µM).

With `COc1c(C)cc(NC(=O)c2nn(Cc3ccc(F)cc3)c3c2CN(C(=O)c2ccc[nH]2)C[C@]3(C)C(N)=O)cc1C`, the solubility (kinetic) was less than 1 µg/mL.

Compound `O=C1CN(C(=O)CCC(=O)N2CCc3c(nc4cc(-c5ccccc5)[nH]n4c3=O)C2)c2ccccc2N1` came in with a solubility (kinetic) of 15.6 µg/mL (≈ 31.3 µM).

Regarding `Cc1ccccc1C(=O)N1CCc2cc(-c3cccc(NC(=O)Cc4ccc5c(c4)OCO5)c3)ccc21`, the solubility (kinetic) is less than 1 µg/mL.

For `COc1cccc(O)c1CNc1ccc(S(=O)(=O)Nc2nccs2)cc1`, the kinetic solubility was more than 58 µg/mL.

In the case of `O=S(=O)(Nc1nccs1)c1ccc(NCc2cc(F)ccc2O)cc1`, the solubility (kinetic) was more than 56 µg/mL.

In the case of `Cc1ccc(-c2csc(CCn3nc(C)c4c(C(F)(F)F)cc(=O)[nH]c43)n2)cc1`, the solubility (kinetic) was less than 1 µg/mL.

`Cc1cc(NS(=O)(=O)c2ccc(NCCc3ccc(Cl)c(Cl)c3)cc2)no1` came in with a solubility (kinetic) of 11.4 µg/mL (≈ 26.9 µM).

For the compound `COc1ccc(-c2nc3ccccc3s2)cc1NC(=O)c1ccc(F)cc1`, the kinetic solubility was less than 1 µg/mL.

The compound `O=c1n(-c2ccc(Cl)cc2)nc2n1CCN(Cc1ccc(C(F)(F)F)cc1)C2` gave a solubility (kinetic) of less than 1 µg/mL.

Compound `Cc1ccc(S(=O)(=O)Nc2cnccc2C(=O)NCc2ccccc2)cc1` displayed a kinetic solubility of more than 56 µg/mL.

In turn, `COc1c(O)ccc2c1CN1CCc3cc4c(cc3[C@@H]1C2)OCO4` had a kinetic solubility of 19.6 µg/mL (≈ 60.2 µM).

Turning to `Cc1ccc(S(=O)(=O)Nc2cnccc2C(=O)Nc2nc(-c3cnn(C)c3)cs2)cc1`, the solubility (kinetic) is 25.4 µg/mL (≈ 55.8 µM).

Compound `O=C(Nc1nc(-c2ccccc2)cs1)c1ccncc1NS(=O)(=O)c1ccc2c(c1)CCC2` had a solubility (kinetic) of 5.8 µg/mL (≈ 12.2 µM).

In the case of `O=S(=O)(Nc1ccccc1N1CCCCC1)c1ccc(Cl)s1`, the kinetic solubility is 3.68 µg/mL (≈ 10.3 µM).

In turn, `O=C(c1cccs1)c1nonc1C(=O)c1cccs1` came in with a kinetic solubility of less than 1 µg/mL.

On to `NC(=O)C1CCN(c2nccc(Cl)n2)CC1`, for which the kinetic solubility was more than 35 µg/mL.

`CN1C(=O)c2ccccc2[S@](=O)c2ccc(C(=O)NCc3ccc(Br)cc3)cc21` came in with a solubility (kinetic) of less than 1 µg/mL.

`CCN(c1ccccc1)S(=O)(=O)c1cc(C(=O)Nc2ccc(Br)cc2)ccc1F` came in with a solubility (kinetic) of less than 1 µg/mL.

Consider `CCOc1ccccc1C(=O)Nc1ccccc1C(=O)Nc1cccc(C(F)(F)F)c1`, for which the kinetic solubility is less than 1 µg/mL.

In the case of `Cc1ccc(S(=O)(=O)Nc2cnccc2C(=O)Nc2nc(-c3cc(Br)cs3)cs2)cc1`, the solubility (kinetic) was 0.958 µg/mL (≈ 1.79 µM).

`CCOc1cc(CCNC(=O)c2cc3sccc3n2Cc2ccccc2)cc(F)c1OCC` gave a solubility (kinetic) of less than 1 µg/mL.

The compound `CCC(CC)C(=O)NC[C@@H]1C=C(C)[C@H](Cc2nc3c(C)cccc3[nH]2)C[C@H]1C(C)C` gave a kinetic solubility of 4.34 µg/mL (≈ 10.6 µM).

Compound `NC(=O)C1CCN(c2nc(-c3ccc(F)cc3)cs2)CC1` returned a kinetic solubility of more than 45 µg/mL.

With `O=C1CCCCc2cc(O)c(O)cc21`, the solubility (kinetic) was more than 28 µg/mL.

Compound `Cc1ccnc(C)c1C(=O)Nc1cccc([S+](=O)([O-])N(C)C)c1` returned a solubility (kinetic) of more than 49 µg/mL.

Turning to `CCCCc1ccc(NC(=O)c2ccc3c(c2)N(S(C)(=O)=O)CC3)cc1`, the kinetic solubility worked out at 1.08 µg/mL (≈ 2.91 µM).

Turning to `CCOC(=O)c1ccc(NC(=O)N2Cc3[nH]cnc3C[C@H]2c2nc(C(C)C)no2)cc1`, the solubility (kinetic) is more than 63 µg/mL.

In the case of `CCOc1ccc(CCN(C)C(=O)c2cc3sccc3n2Cc2ccccc2)cc1OCC`, the kinetic solubility is less than 1 µg/mL.

`Cc1nc2c(-c3ccccc3)cnn2c(N)c1-c1ccccc1` registered a kinetic solubility of less than 1 µg/mL.

In turn, `COc1ccc(-c2nc3ccccc3c(=O)n2Cc2ccccc2)cc1COc1ccc(NC(C)=O)cc1` gave a solubility (kinetic) of less than 1 µg/mL.

For `CCOC(=O)c1cnc2ccc(-c3cncc(NS(=O)(=O)c4ccccc4)c3)cn12`, the kinetic solubility turned out to be 6.49 µg/mL (≈ 15.4 µM).

`NC(=O)C1CCN(c2cc(-c3ccc4c(c3)OCCCO4)ncn2)CC1` yielded a kinetic solubility of more than 52 µg/mL.

Consider `COc1ccc(S(=O)(=O)N2CCOCC2)cc1NC(=O)c1cccc(-n2cccc2)c1`, for which the kinetic solubility was determined as 6.13 µg/mL (≈ 13.9 µM).

As for `CCO.Nc1nc(N)c2cc(Sc3ccc4ccccc4c3)ccc2n1`, the solubility (kinetic) was less than 1 µg/mL.

In turn, `CCCCNC(=O)CN1CCN(c2ncc(NC(=O)c3ccc(Cl)cc3)cc2C(=O)O)CC1` showed a solubility (kinetic) of more than 70 µg/mL.

Regarding `Cn1ccc2c(C(=O)NCc3cccnc3)nc(-c3ccc(CO)cc3)cc21`, the kinetic solubility was more than 82 µg/mL.

`CCC[C@@H]1CN(C(=O)c2ccc(-c3ccc(C)o3)cc2)C[C@H]1NC(C)=O`: the kinetic solubility is more than 52 µg/mL.

The compound `Cc1ccc(C(=O)Nc2nc3nc(C)cc(=O)n3[nH]2)cc1` displayed a solubility (kinetic) of more than 42 µg/mL.

On to `c1ccc(Nc2cc3c(cn2)CN(Cc2c[nH]c4ccccc24)CCN3)cc1`, for which the solubility (kinetic) worked out at 43.7 µg/mL (≈ 118 µM).
